Results taken from patent US8815857B2 (Boehringer Ingelheim International GmbH, priority 2011, dated 2014).
In brackets after ≈: the same amount, converted by molar mass.

Tests used:
[1] = molecular target: T1, Recombinant human soluble guanylate cyclase (sGC), alpha 1 / beta 1 subunits, heme-free (Homo sapiens, UniProt Q02108+Q02153); assay: Molecular assay: cGMP formation by heme-free recombinant sGC (CisBio cGMP detection kit); format: biochemical; details: 300 pM heme-free sGC, 37° C., 60 min, cGMP readout; read-out: EC50 nM, Activity of Compounds in Molecular Assay
T1 construct: histidine tag (C); made in house; host or cells: Sf9 insect cells (baculovirus coinfection)
T1 sequence (Q02108 1-690 partner): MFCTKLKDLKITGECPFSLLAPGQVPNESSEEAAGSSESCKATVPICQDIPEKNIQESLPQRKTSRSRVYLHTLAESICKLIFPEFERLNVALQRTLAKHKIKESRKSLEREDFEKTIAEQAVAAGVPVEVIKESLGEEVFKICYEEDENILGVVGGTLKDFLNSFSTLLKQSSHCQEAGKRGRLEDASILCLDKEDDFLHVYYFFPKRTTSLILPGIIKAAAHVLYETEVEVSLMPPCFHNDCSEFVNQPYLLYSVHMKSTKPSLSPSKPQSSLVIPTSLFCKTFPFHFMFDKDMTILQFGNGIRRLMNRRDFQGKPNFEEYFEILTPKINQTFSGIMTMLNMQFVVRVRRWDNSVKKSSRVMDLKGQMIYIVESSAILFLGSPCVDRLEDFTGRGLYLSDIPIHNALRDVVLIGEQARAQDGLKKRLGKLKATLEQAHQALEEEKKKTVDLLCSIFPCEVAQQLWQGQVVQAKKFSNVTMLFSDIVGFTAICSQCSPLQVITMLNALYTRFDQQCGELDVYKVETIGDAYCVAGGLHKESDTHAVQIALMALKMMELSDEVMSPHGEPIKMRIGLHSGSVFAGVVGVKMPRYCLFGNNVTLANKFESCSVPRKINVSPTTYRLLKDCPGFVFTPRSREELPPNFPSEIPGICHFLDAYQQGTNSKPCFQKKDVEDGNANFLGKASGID
T1 sequence (Q02153 1-619): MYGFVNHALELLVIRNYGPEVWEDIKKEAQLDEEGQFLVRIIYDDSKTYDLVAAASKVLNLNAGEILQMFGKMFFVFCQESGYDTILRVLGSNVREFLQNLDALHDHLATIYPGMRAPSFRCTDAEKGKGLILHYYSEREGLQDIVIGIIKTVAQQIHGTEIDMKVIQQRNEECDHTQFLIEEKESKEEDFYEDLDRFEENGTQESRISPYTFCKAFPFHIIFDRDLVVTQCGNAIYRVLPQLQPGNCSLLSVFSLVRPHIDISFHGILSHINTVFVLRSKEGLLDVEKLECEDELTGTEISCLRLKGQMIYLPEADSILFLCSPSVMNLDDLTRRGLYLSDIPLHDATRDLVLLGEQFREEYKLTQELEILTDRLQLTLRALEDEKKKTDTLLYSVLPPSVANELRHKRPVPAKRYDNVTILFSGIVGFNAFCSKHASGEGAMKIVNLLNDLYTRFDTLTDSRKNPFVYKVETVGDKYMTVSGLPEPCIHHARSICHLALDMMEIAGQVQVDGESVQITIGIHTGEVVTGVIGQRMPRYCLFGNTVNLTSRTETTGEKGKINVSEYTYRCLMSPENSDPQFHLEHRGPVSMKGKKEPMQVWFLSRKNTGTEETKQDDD
Method in brief: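 cGMP generated over 60 min at 37° C (pH 6.8 MOPS buffer, 50 nM GTP, 1.25 mM IBMX, 1% DMSO) by 300 pM heme-free sGC, expressed in Sf9 and heme-stripped with 0.5% Tween 20. HTRF ratios converted to nM cGMP; EC50 fitted from log concentration.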

[2] = Assessment of solubility: HT solubility in pION buffer, UV spectrophotometry; details: 16-19 h incubation, 1.0% DMSO; for solubility: pION system solution buffer, kinetic from dmso stock
Method: Solubility is measured by the following method.
DMSO stock samples at 10 mM concentration are prepared. […] The samples are pierced and 100 ul of thawed samples are transferred into the PCR plate for analysis. Each sample is run in duplicate at each pH (pH 4.5 and 7.4). Up to 95 samples can be run in replicate at 2 pH's+1 DMSO (blank).
Preparation of pH 4.5 and 7.4 Buffers:
• pH 4.5 buffer:—To 12.5 of system solution (pION)qs to 500 mL of distilled water (pH 2.85-2.90); adjust the pH to pH 4.5 with 0.5 N NaOH. • pH 7.4 buffer: To 12.5 of system solution (pION)qs to 500 mL of distilled water (pH 2.85-2.90); adjust the pH to pH 7.4 with 0.5N NaOH. […] Procedure: Preparation of UV Blank Plate:
75 ul of buffer (pH 7.4 or pH 4.5) is added to UV plate followed by addition of 70 ul of N-propanol. The solution is mixed and the blank spectrum is read using spectrophotometer.
Preparation of Reference UV Plate:
10 ul of each stock sample (including DMSO control) is added to 190 ul of N-propanol to prepare the reference stock plate. Reference stock samples are mixed and 5 ul of each stock sample is added to UV blank plate after it is read spectrophotometrically. The reference stock sample is mixed with blank solution in UV plate and the reference spectrum is read using UV spectrophotometer.
Preparation of Sample for Incubation:
Solubility at pH 7.4:6 ul of each stock sample (including DMSO control) is added to the storage plate containing 600 ul of pH 7.4 buffer, mixed and incubated for 16-19 h. The plate is sealed well during the incubation process. The DMSO content in the sample is 1.0%. The concentration in deep well plates is 100 uM
6 ul of each stock sample (including DMSO control) is added to the deep well plate containing 600 ul of pH 4.5 buffer, mixed and incubated for 16-19 h. The plate is sealed well during the incubation process. The DMSO content in the sample is 1.0%. The concentration in deep well plates is 100 uM
Preparation of Sample UV Plate:
At the end of the incubation period, 100 uL of sample from the storage plate is vacuum filtered using a filter plate. This step wets the filters and the filtrate is discarded. Another 200 ul of the sample from the deep well plate is vacuum filtered using the same filter block but a clean filter plate. 75 ul of the filtrate from the filter plate is transferred to a UV sample plate. 75 ul of N-propanol is added to this UV plate. The solution is mixed and the spectrum is read using the UV spectrophotometer.
The spectra collected for blank, reference and sample from 250-498 nm is analyzed using pION software. If the sample precipitates out, the solubility is reported as XX μg/ml.

[3] = pH 4.5, pH 4.5, aqueous buffer, Solubility (pH 4.5), pH 4.5 buffer
[4] = pH 7.4, pH 7.4, aqueous buffer, Solubility (pH 7.4), pH 7.4 buffer

Row | Compound | EC50 [1] | solubility [2, 3] | solubility [2, 4] | Solubility (pH 4.5) ([2]; pH 4.5 buffer)
1 | Cc1cc(C(=O)N2CCCCC2)ccc1COc1ccc(Cl)cc1-c1csc(N2CCC(C(=O)O)CC2C)n1 (stereo not drawn) [Compound 102] | 30 nM | 0.25 µg/mL (≈ 0.44 µM) | 26 µg/mL (≈ 45.8 µM) | –
2 | Cc1cc(C(=O)N2CCCCC2)ccc1COc1ccc(Cl)cc1-c1csc(N2CCC(C(=O)O)C(C)C2)n1 (stereo not drawn) [Compound 103] | 17 nM | 0.3 µg/mL (≈ 0.528 µM) | 35 µg/mL (≈ 61.6 µM) | –
3 | Cc1ccc(OCc2ccc(CN3CCS(=O)(=O)CC3)cc2C)c(-c2csc(N3CCC(C(=O)O)CC3)n2)c1 [Compound 104] | 19 nM | 0.35 µg/mL (≈ 0.614 µM) | > 68 µg/mL | –
4 | Cc1cc(CN2CCS(=O)(=O)CC2)ccc1COc1c(C)cccc1-c1csc(N2CCC(C(=O)O)CC2)n1 [Compound 105] | 37 nM | 8.9 µg/mL (≈ 15.6 µM) | > 56 µg/mL | –
5 | Cc1ccc(OCc2ccc(C(=O)N3CCC(F)(F)CC3)cc2C)c(-c2csc(N3CCC(C(=O)O)CC3)n2)c1 [Compound 106] | 100 nM | 0.3 µg/mL (≈ 0.527 µM) | > 56 µg/mL | –
6 | Cc1cc(CN2CCS(=O)(=O)CC2)ccc1COc1ccccc1-c1csc(N2CCC(C(=O)O)C(C)C2)n1 (stereo not drawn) [Compound 107] | 71 nM | 0.65 µg/mL (≈ 1.14 µM) | > 56 µg/mL | –
7 | Cc1cc(CN2CCS(=O)(=O)CC2)ccc1COc1ccccc1-c1csc(N2CCC(C(=O)O)CC2C)n1 (stereo not drawn) [Compound 108] | 100 nM | 2.3 µg/mL (≈ 4.04 µM) | > 56 µg/mL | –
8 | Cc1cc(C(=O)N2CCCCC2)ccc1COc1ccc(C#N)cc1-c1csc(N2C3CCC2CC(C(=O)O)C3)n1 (stereo not drawn) [Compound 109] | 1500 nM | 0.65 µg/mL (≈ 1.14 µM) | > 56 µg/mL | –
9 | Cc1cc(CN2CCS(=O)(=O)CC2)ccc1COc1ccc(F)cc1-c1csc(N2CC3C(C2)C3C(=O)O)n1 (stereo not drawn) [Compound 110] | 1200 nM | 0.35 µg/mL (≈ 0.612 µM) | > 57 µg/mL | –
10 | Cc1cc(CN2CCS(=O)(=O)CC2)ccc1COc1ccc(F)cc1-c1csc(N2CCC(C(=O)O)CC2)n1 [Compound 111] | 74 nM | 0.25 µg/mL (≈ 0.436 µM) | > 57 µg/mL | –
11 | Cc1ccc(OCc2ccc(CN(C)CC3CCOCC3)cc2C#N)c(-c2csc(N3CCC(C(=O)O)CC3)n2)c1 [Compound 112] | 400 nM | > 68 µg/mL | > 68 µg/mL | –
12 | Cc1cc(CN2CCOCC2)ccc1COc1c(-c2csc(N3CCC(C(=O)O)CC3)n2)cccc1C(F)(F)F [Compound 113] | 56 nM | > 57 µg/mL | > 57 µg/mL | –
13 | Cc1cc(CN2CCOCC2)ccc1COc1ccccc1-c1csc(N2CCC(C(=O)O)CC2C(F)(F)F)n1 (stereo not drawn) [Compound 114] | 470 nM | 30 µg/mL (≈ 52.1 µM) | > 57 µg/mL | –
14 | CNC(=O)C1CCN(Cc2ccc(COc3c(C)cccc3-c3csc(N4CCC(C(=O)O)CC4)n3)c(C)c2)CC1 [Compound 115] | 2700 nM | > 57 µg/mL | > 57 µg/mL | –
15 | Cc1cc(C(=O)N2CCCCC2)ccc1COc1ccc(Cl)cc1-c1csc(N2C3CCC2CC(C(=O)O)C3)n1 (stereo not drawn) [Compound 117] | 30 nM | 0.25 µg/mL (≈ 0.431 µM) | > 57 µg/mL | –
16 | Cc1cc(C(=O)N2CCCCC2)ccc1COc1ccc(Cl)cc1-c1csc(N2CC3CCC(C2)C3C(=O)O)n1 (stereo not drawn) [Compound 118] | 85 nM | 0.3 µg/mL (≈ 0.517 µM) | 21 µg/mL (≈ 36.2 µM) | –
17 | Cc1ccc(OCc2ccc(CN3CCS(=O)(=O)CC3)cc2C#N)c(-c2csc(N3CCC(C(=O)O)CC3)n2)c1 [Compound 119] | 39 nM | 1.6 µg/mL (≈ 2.76 µM) | > 69 µg/mL | –
18 | Cc1cc(CN2CCS(=O)(=O)CC2)ccc1COc1ccccc1-c1csc(N2CC3CCC(C2)C3C(=O)O)n1 (stereo not drawn) [Compound 121] | 280 nM | 3.3 µg/mL (≈ 5.67 µM) | > 58 µg/mL | –

Row | Compound | EC50 [1] | solubility [2, 3] | solubility [2, 4] | Solubility (pH 4.5) ([2]; pH 4.5 buffer)
19 | Cc1ccc(OCc2ccc(C(=O)N3CCS(=O)(=O)CC3)cc2C)c(-c2csc(N3CCC(C(=O)O)CC3)n2)c1 [Compound 122] | 81 nM | 4.3 µg/mL (≈ 7.37 µM) | > 58 µg/mL | –
20 | Cc1cc(CN(C)C2CCS(=O)(=O)C2)ccc1COc1c(C)cccc1-c1csc(N2CCC(C(=O)O)CC2)n1 (stereo not drawn) [Compound 123] | 17 nM | 31 µg/mL (≈ 53.1 µM) | > 58 µg/mL | –
21 | Cc1ccc(OCc2ccc(C(=O)N(C)CC3CCCCC3)cc2C#N)c(-c2csc(N3CCC(C(=O)O)CC3)n2)c1 [Compound 125] | 74 nM | – | 14 µg/mL (≈ 23.9 µM) | 0.1 μg/mL
22 | Cc1cc(C(=O)N2CCCCC2)ccc1COc1c(-c2csc(N3CCC(C(=O)O)CC3)n2)cccc1C(F)(F)F [Compound 126] | 46 nM | 0.15 µg/mL (≈ 0.255 µM) | > 58 µg/mL | –
23 | Cc1cc(C(=O)N2CCCCC2)ccc1COc1ccccc1-c1csc(N2CCC(C(=O)O)C(C(F)(F)F)C2)n1 (stereo not drawn) [Compound 127] | 400 nM | 0.2 µg/mL (≈ 0.34 µM) | > 58 µg/mL | –
24 | Cc1cc(CN2CCS(=O)(=O)CC2)ccc1COc1ccc(F)cc1-c1csc(N2CCC(C(=O)O)C(C)C2)n1 (stereo not drawn) [Compound 129] | 89 nM | 0.15 µg/mL (≈ 0.255 µM) | > 58 µg/mL | –
25 | Cc1cc(C(=O)N2CCCCC2)ccc1COc1ccccc1-c1csc(N2CCC(C(=O)O)CC2C(F)(F)F)n1 (stereo not drawn) [Compound 130] | 30 nM | 0.3 µg/mL (≈ 0.51 µM) | > 58 µg/mL | –
26 | Cc1cc(CN2CCS(=O)(=O)CC2)ccc1COc1ccc(F)cc1-c1csc(N2CCC(C(=O)O)CC2C)n1 (stereo not drawn) [Compound 131] | 88 nM | 0.15 µg/mL (≈ 0.255 µM) | > 58 µg/mL | –
27 | Cc1ccc(OCc2ccc(CN3CCOCC3)cc2C)c(-c2csc(N3CCC(C(=O)O)CC3C(F)(F)F)n2)c1 (stereo not drawn) [Compound 132] | 160 nM | 15 µg/mL (≈ 25.4 µM) | > 58 µg/mL | –
28 | Cc1cc(CN2CCS(=O)(=O)CC2)ccc1COc1ccc(Cl)cc1-c1csc(N2CCC(C(=O)O)CC2)n1 [Compound 133] | 45 nM | 0.2 µg/mL (≈ 0.339 µM) | > 58 µg/mL | –
29 | Cc1cc(CN2CCC(C(=O)N(C)C)CC2)ccc1COc1c(C)cccc1-c1csc(N2CCC(C(=O)O)CC2)n1 [Compound 134] | 1800 nM | > 68 µg/mL | > 68 µg/mL | –
30 | Cc1cc(CN2CCS(=O)(=O)CC2)ccc1COc1ccc(C#N)cc1-c1csc(N2CCC(C(=O)O)C(C)C2)n1 (stereo not drawn) [Compound 135] | 2700 nM | 0.45 µg/mL (≈ 0.757 µM) | > 59 µg/mL | –
31 | Cc1ccc(OCc2ccc(CN3CCS(=O)(=O)CC3)cc2C)c(-c2csc(N3CC4CCC(C3)C4C(=O)O)n2)c1 (stereo not drawn) [Compound 136] | 6.1 nM | 0.45 µg/mL (≈ 0.755 µM) | > 59 µg/mL | –
32 | Cc1ccc(OCc2ccc(CN3CCS(=O)(=O)CC3)cc2C)c(-c2csc(N3C4CCC3CC(C(=O)O)C4)n2)c1 (stereo not drawn) [Compound 137] | 64 nM | 0.95 µg/mL (≈ 1.59 µM) | > 59 µg/mL | –
33 | Cc1ccc(OCc2ccc(CN3CCC(S(C)(=O)=O)CC3)cc2C)c(-c2csc(N3CCC(C(=O)O)CC3)n2)c1 [Compound 138] | 180 nM | > 70 µg/mL | > 70 µg/mL | –
34 | Cc1cc(CN2CCS(=O)(=O)CC2)ccc1COc1ccc(F)cc1-c1csc(N2C3CCC2CC(C(=O)O)C3)n1 (stereo not drawn) [Compound 139] | 380 nM | 0.6 µg/mL (≈ 1 µM) | > 59 µg/mL | –
35 | N#Cc1cc(CN2CCS(=O)(=O)CC2)ccc1COc1c(Cl)cccc1-c1csc(N2CCC(C(=O)O)CC2)n1 [Compound 140] | 79 nM | 1.8 µg/mL (≈ 2.99 µM) | > 60 µg/mL | –
36 | Cc1ccc(OCc2ccc(C(=O)N3CCCCC3)cc2C)c(-c2csc(N3CCC(C(=O)O)CC3C(F)(F)F)n2)c1 (stereo not drawn) [Compound 141] | 3.9 nM | 0.2 µg/mL (≈ 0.332 µM) | > 60 µg/mL | –
